We go through 28 compounds from patent US20260223850A1, “SUBSTITUTED PYRROLIDONE COMPOUND, PREPARATION METHOD THEREFOR, COMPOSITION AND APPLICATION THEREOF” (QINGDAO KINGAGROOT CHEMICAL COMPOUND CO., LTD., priority 2023, published 2026).

Common to all, as to type: in vivo
One series concerns Huaidao (rice cultivar). Briefly: Seedling stage sealing experiment for water-seeding (crop safety). Conditions: 120 g a.i./ha, 15 days, fresh weight control rate; for Huaidao (rice cultivar) plant damage level: seedling stage sealing; for Huaidao (rice cultivar) plant damage level (growth control rate): spray, seedling stage sealing for water-seeding. The text has this: (§1) The activity level criteria for plant damage (i.e., growth control rate) are as follows: • Level 9: completely dead; • Level 8: growth control rate greater than or equal to 90% and less than 100%; • Level 7: growth control rate greater than or equal to 80% and less than 90%; • Level 6: growth control rate greater than or equal to 70% and less than 80%; • Level 5: growth control rate greater than or equal to 50% and less than 70%; • Level 4: growth control rate greater than or equal to 30% and less than 50%; • Level 3: growth control rate greater than or equal to 20% and less than 30%; • Level 2: growth control rate greater than or equal to 10% and less than 20%; • Level 1: growth control rate less than 10%; • Level 0: no effect.
(§2) The above growth control rates are fresh weight control rates.
(§3) Echinochloa phyllopogon, Digitaria sanguinalis, Huaidao (rice cultivar), etc. were broadcasted on the surface of nutrition bowls filled with soil and fully covered by soil. The foregoing well-prepared nutrition bowls were then placed in a cultivation box with water filled to a suitable height to keep the soil in the nutrition bowls moist. A test compound of the present invention was individually dissolved with acetone, then diluted into solution of a certain concentration using a certain amount of water, and sprayed using a spray tower. The plants were placed on a greenhouse seedbed and cultured for 15 days, and the experimental results were then collected. The compound was applied at 120, 60, 30 and 15 g a.i./ha in triplicate, and the results were averaged.

The next series deals with Echinochloa crusgalli. Briefly: Seedling stage sealing experiment for water-seeding. Conditions: 120 g a.i./ha, 15 days, fresh weight control rate.
Description: as §1, §2, §3

The next series deals with Echinochloa phyllopogon. The description is as above. Conditions: 120 g a.i./ha, 15 days, fresh weight control rate.
Description: as §1, §2, §3

Where [1] appears, read: spray, seedling stage sealing for water-seeding.

Take `CN1C[C@H](c2cccc(Oc3ccc(F)cn3)c2)[C@@H](C(=O)Nc2cnn(C)c2Cl)C1=O` [52′]: the “Huaidao (rice cultivar) plant damage level” value in the series with Huaidao (rice cultivar) was 0. For the same compound, the “Echinochloa crusgalli activity level (growth control rate)” value (from here on “Echinochloa crusgalli activity level”) with Echinochloa crusgalli (seedling stage sealing) was 9.

Turning to `COc1cc([C@H]2CN(C)C(=O)[C@@H]2C(=O)Nc2cnn(C(F)F)c2Cl)cc(C(F)(F)F)c1` [445′], the “Huaidao (rice cultivar) plant damage level (growth control rate)” value (from here on “Huaidao … (growth control rate)”) in the series with Huaidao (rice cultivar) is recorded as 0. The “Echinochloa phyllopogon activity level (growth control rate)” value (from here on “Echinochloa phyllopogon activity level”) in the series with Echinochloa phyllopogon (setting [1]) is reported as 9. Also, the “Echinochloa crusgalli activity level” value in the series on Echinochloa crusgalli (setting [1]) stood at 9.

Regarding `CN1C[C@H](c2cc(Cl)cc(Cl)c2)[C@@H](C(=O)Nc2cnn(C)c2C2CC2)C1=O` [443′], the “Huaidao … (growth control rate)” value in the series on Huaidao (rice cultivar) is listed as 0. In the series with Echinochloa phyllopogon (setting [1]), the “Echinochloa phyllopogon activity level” value was 8 (Level 8: growth control rate greater than or equal to 90% and less than 100%). Further, the “Echinochloa crusgalli activity level” value in the series on Echinochloa crusgalli (setting [1]) is given as 9.

Consider `Cc1cc(C)cc([C@H]2CN(C)C(=O)[C@@H]2C(=O)Nc2cnn(C)c2-c2cscn2)c1` [551′], for which the “Huaidao … (growth control rate)” value in the series on Huaidao (rice cultivar) turned out to be 0. Besides, the “Echinochloa crusgalli activity level” value in the series on Echinochloa crusgalli (setting [1]) is recorded as 9.

Regarding `Cc1cc(C)cc([C@H]2CN(C)C(=O)[C@@H]2C(=O)Nc2cnn(C(C)C)c2C2CC2)c1` [278′], the “Huaidao (rice cultivar) plant damage level” value with Huaidao (rice cultivar) came to 0. For the same compound, the “Echinochloa crusgalli activity level” value in the series on Echinochloa crusgalli (seedling stage sealing) was 6 (Level 6: growth control rate greater than or equal to 70% and less than 80%).

Turning to `CN1CC(c2csc3ccccc23)C(C(=O)Nc2cnn(C)c2Cl)C1=O` (stereo not shown) [Compound 359], the “Huaidao (rice cultivar) plant damage level” value with Huaidao (rice cultivar) worked out at 0. The “Echinochloa phyllopogon activity level” value with Echinochloa phyllopogon (seedling stage sealing) is 7 (Level 7: growth control rate greater than or equal to 80% and less than 90%).

Take `Cc1cc(C)cc([C@H]2CN(C)C(=O)[C@@H]2C(=O)N(CC2CC2)c2cnn(C)c2Cl)c1` [367′]: in the series on Huaidao (rice cultivar), the “Huaidao (rice cultivar) plant damage level” value was 1 (Level 1: growth control rate less than 10%). Besides, the “Echinochloa crusgalli activity level” value in the series on Echinochloa crusgalli (seedling stage sealing) stood at 9.

`Cc1cc(C)cc([C@H]2CN(C)C(=O)[C@@H]2C(=O)Nc2cnn(C)c2)c1` [274′]: the “Huaidao (rice cultivar) plant damage level” value with Huaidao (rice cultivar) is reported as 0. Besides, the “Echinochloa crusgalli activity level” value in the series with Echinochloa crusgalli (seedling stage sealing) is 7 (Level 7: growth control rate greater than or equal to 80% and less than 90%).

`Cc1cc(C)cc([C@H]2CN(C)C(=O)[C@@H]2C(=O)Nc2cnn(C(C)(C)C)c2Cl)c1` [267′]: the “Huaidao (rice cultivar) plant damage level” value with Huaidao (rice cultivar) is given as 0. Also, the “Echinochloa crusgalli activity level” value in the series with Echinochloa crusgalli (seedling stage sealing) is 6 (Level 6: growth control rate greater than or equal to 70% and less than 80%).

For `Cc1cc(C)cc([C@H]2CN(C)C(=O)[C@@H]2C(=O)N(C)c2cnn(C)c2Cl)c1` [490′], the “Huaidao … (growth control rate)” value in the series on Huaidao (rice cultivar) is 0. Besides, the “Echinochloa crusgalli activity level” value with Echinochloa crusgalli (setting [1]) was 9.

As for `C=C(C)c1cccc([C@H]2CN(C)C(=O)[C@@H]2C(=O)Nc2cnn(C)c2Cl)c1` [150′], the “Huaidao (rice cultivar) plant damage level” value in the series on Huaidao (rice cultivar) was found to be 0. For the same compound, the “Echinochloa crusgalli activity level” value in the series with Echinochloa crusgalli (seedling stage sealing) is 6 (Level 6: growth control rate greater than or equal to 70% and less than 80%).

In the case of `Cc1cccc([C@H]2CN(C)C(=O)[C@@H]2C(=O)Nc2cnn(C(=O)OC(C)(C)C)c2Cl)c1` [463′], the “Huaidao … (growth control rate)” value in the series on Huaidao (rice cultivar) is reported as 0. Also, the “Echinochloa crusgalli activity level” value in the series on Echinochloa crusgalli (setting [1]) was 6 (Level 6: growth control rate greater than or equal to 70% and less than 80%).

`CN1CC(c2cccc(C(F)(F)F)c2)C(C(=O)Nc2cnn(C)c2CF)C1=O` (stereo not shown) [Compound 477]: the “Huaidao … (growth control rate)” value in the series on Huaidao (rice cultivar) is reported as 0. Also, the “Echinochloa crusgalli activity level” value in the series on Echinochloa crusgalli (setting [1]) worked out at 9.

Consider `Cc1cc(C)cc([C@H]2CN(C)C(=O)[C@@H]2C(=O)Nc2cnn(C)c2C2=CCCC2)c1` [280′], for which the “Huaidao (rice cultivar) plant damage level” value in the series on Huaidao (rice cultivar) worked out at 0. Also, the “Echinochloa crusgalli activity level” value in the series with Echinochloa crusgalli (seedling stage sealing) is 6 (Level 6: growth control rate greater than or equal to 70% and less than 80%).

For the compound `CN1C[C@H](c2cc(Br)cc(C(F)F)c2)[C@@H](C(=O)Nc2cnn(C)c2C2CC2)C1=O` [513′], the “Huaidao … (growth control rate)” value with Huaidao (rice cultivar) came out at 0. Further, the “Echinochloa crusgalli activity level” value with Echinochloa crusgalli (setting [1]) came to 9.

Turning to `Cc1cccc([C@H]2CN(C)C(=O)[C@@H]2C(=O)Nc2cnn(C(C)(C)C)c2Cl)c1` [384′], the “Huaidao (rice cultivar) plant damage level” value with Huaidao (rice cultivar) is recorded as 0. For the same compound, the “Echinochloa crusgalli activity level” value with Echinochloa crusgalli (seedling stage sealing) is 6 (Level 6: growth control rate greater than or equal to 70% and less than 80%).

As to `CCc1cc(C)cc([C@H]2CN(C)C(=O)[C@@H]2C(=O)Nc2cnn(C)c2Cl)c1` [287′], the “Huaidao (rice cultivar) plant damage level” value in the series with Huaidao (rice cultivar) worked out at 0. For the same compound, the “Echinochloa phyllopogon activity level” value with Echinochloa phyllopogon (seedling stage sealing) stood at 9.

For the compound `Cc1cc(C)cc([C@H]2CN(C)C(=O)[C@@H]2C(=O)Nc2cnn(C(F)F)c2C2CC2)c1` [429′], the “Echinochloa phyllopogon activity level” value with Echinochloa phyllopogon (seedling stage sealing) came out at 9. Moreover, the “Echinochloa crusgalli activity level” value in the series with Echinochloa crusgalli (seedling stage sealing) amounted to 9.

Turning to `CN1C[C@H](c2cccc(C3CC3)c2)[C@@H](C(=O)Nc2cnn(C)c2Cl)C1=O` [151′], in the series on Huaidao (rice cultivar), the “Huaidao (rice cultivar) plant damage level” value worked out at 0. Also, the “Echinochloa phyllopogon activity level” value with Echinochloa phyllopogon (seedling stage sealing) is 9.

As for `Cc1cc(C2CC2)cc([C@H]2CN(C)C(=O)[C@@H]2C(=O)Nc2cnn(C)c2Cl)c1` [289′], in the series on Huaidao (rice cultivar), the “Huaidao (rice cultivar) plant damage level” value was 0. In addition, the “Echinochloa phyllopogon activity level” value in the series on Echinochloa phyllopogon (seedling stage sealing) is on record as 9.

Consider `CN1C[C@H](c2cccc(C(F)(F)F)c2)[C@@H](C(=O)Nc2cnn(C)c2C(N)=O)C1=O` [482′], for which the “Huaidao … (growth control rate)” value with Huaidao (rice cultivar) came out at 0. Besides, the “Echinochloa crusgalli activity level” value in the series on Echinochloa crusgalli (setting [1]) turned out to be 9.

In the case of `C=C(C)c1ccc(C2CN(C)C(=O)C2C(=O)Nc2cnn(C)c2Cl)cc1` (stereo not shown) [Compound 252], the “Echinochloa phyllopogon activity level” value in the series with Echinochloa phyllopogon (seedling stage sealing) was 9. In addition, in the series with Echinochloa crusgalli (seedling stage sealing), the “Echinochloa crusgalli activity level” value was 7 (Level 7: growth control rate greater than or equal to 80% and less than 90%).

With `Cc1cccc([C@H]2CN(C)C(=O)[C@@H]2C(=O)Nc2cnn(C)c2[S+](C)[O-])c1` (stereo partly shown) [530′], in the series on Huaidao (rice cultivar), the “Huaidao … (growth control rate)” value stood at 0. In addition, in the series on Echinochloa crusgalli (setting [1]), the “Echinochloa crusgalli activity level” value amounted to 9.

For `CCc1c(NC(=O)[C@H]2C(=O)N(C)C[C@@H]2c2cccc(C(F)(F)F)c2)cnn1C(F)F` [403′], the “Echinochloa phyllopogon activity level” value in the series with Echinochloa phyllopogon (seedling stage sealing) came to 9. Besides, the “Echinochloa crusgalli activity level” value in the series with Echinochloa crusgalli (seedling stage sealing) is on record as 9.

Turning to `Cc1cc(C)cc(C2CN(C)C(=O)C2C(=O)Nc2cnn(C)c2N(C)C)c1` (stereo not shown) [Compound 499], in the series with Huaidao (rice cultivar), the “Huaidao … (growth control rate)” value was 0. Moreover, the “Echinochloa crusgalli activity level” value with Echinochloa crusgalli (setting [1]) is 8 (Level 8: growth control rate greater than or equal to 90% and less than 100%).

With `COc1cc([C@H]2CN(C)C(=O)[C@@H]2C(=O)Nc2cnn(C)c2Cl)cc(OC)c1OC` [449′], the “Huaidao … (growth control rate)” value in the series with Huaidao (rice cultivar) stood at 0. Further, the “Echinochloa crusgalli activity level” value in the series on Echinochloa crusgalli (setting [1]) was 6 (Level 6: growth control rate greater than or equal to 70% and less than 80%).

As to `CCn1ncc(NC(=O)[C@H]2C(=O)N(C)C[C@@H]2c2cccc(C(F)(F)F)c2)c1Cl` [95′], the “Echinochloa phyllopogon activity level” value in the series on Echinochloa phyllopogon (seedling stage sealing) is 8 (Level 8: growth control rate greater than or equal to 90% and less than 100%). Further, in the series with Echinochloa crusgalli (seedling stage sealing), the “Echinochloa crusgalli activity level” value is recorded as 9.

As for `Cc1cc(C)cc([C@H]2CN(C)C(=O)[C@@H]2C(=O)Nc2cnn(C)c2C(F)(F)C(F)(F)F)c1` [428′], the “Huaidao (rice cultivar) plant damage level” value with Huaidao (rice cultivar) was 0. In addition, in the series on Echinochloa crusgalli (seedling stage sealing), the “Echinochloa crusgalli activity level” value was 6 (Level 6: growth control rate greater than or equal to 70% and less than 80%).
